Source: paper PMC7721954, “Preclinical comparison of four [^18F, ^natGa]rhPSMA-7 isomers: influence of the stereoconfiguration on pharmacokinetics” (EJNMMI Research, 2020)
Where two headings read alike, the source gives them in different places.

Assays:
[1] = set-up: method as in PMID 16888726, doi:10.1016/j.jfluchem.2010.10.008; details: cited from earlier work
LNCaP cells [2] = details: 1 h, 37 °C, percentage of reference ligand ([125I]I-BA)KuE, n = 3; cited from earlier work
human serum albumin [3] = target: T1, human serum albumin (Homo sapiens, UniProt P02768); details: Chiralpak HSA column, cited from earlier work
T1 construct: purchased
T1 sequence (P02768 25-609): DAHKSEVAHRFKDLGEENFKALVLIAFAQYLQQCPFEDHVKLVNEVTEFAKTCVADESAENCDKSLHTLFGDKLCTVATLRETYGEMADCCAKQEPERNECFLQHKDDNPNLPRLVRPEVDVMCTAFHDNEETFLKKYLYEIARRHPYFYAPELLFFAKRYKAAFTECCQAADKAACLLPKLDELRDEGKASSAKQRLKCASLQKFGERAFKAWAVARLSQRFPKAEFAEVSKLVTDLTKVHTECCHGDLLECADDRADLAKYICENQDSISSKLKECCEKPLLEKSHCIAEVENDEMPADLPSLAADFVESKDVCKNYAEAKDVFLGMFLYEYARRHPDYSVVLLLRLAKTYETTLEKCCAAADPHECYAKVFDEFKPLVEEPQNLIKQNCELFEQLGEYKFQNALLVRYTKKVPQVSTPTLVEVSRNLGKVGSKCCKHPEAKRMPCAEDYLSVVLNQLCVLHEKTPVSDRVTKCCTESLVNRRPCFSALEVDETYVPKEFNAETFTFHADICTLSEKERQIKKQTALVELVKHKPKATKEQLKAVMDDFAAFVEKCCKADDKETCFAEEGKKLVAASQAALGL

[4] = n-octanol/PBS pH 7.4, cited from earlier work
PSMA [5] = target: T2, PSMA (Homo sapiens, UniProt Q04609); details: LNCaP cells, 1 h, 4 °C, n = 3; read-out: IC50 (binding affinity); cited from earlier work
T2 construct: host or cells: LNCaP cells
T2 sequence (Q04609 whole entry): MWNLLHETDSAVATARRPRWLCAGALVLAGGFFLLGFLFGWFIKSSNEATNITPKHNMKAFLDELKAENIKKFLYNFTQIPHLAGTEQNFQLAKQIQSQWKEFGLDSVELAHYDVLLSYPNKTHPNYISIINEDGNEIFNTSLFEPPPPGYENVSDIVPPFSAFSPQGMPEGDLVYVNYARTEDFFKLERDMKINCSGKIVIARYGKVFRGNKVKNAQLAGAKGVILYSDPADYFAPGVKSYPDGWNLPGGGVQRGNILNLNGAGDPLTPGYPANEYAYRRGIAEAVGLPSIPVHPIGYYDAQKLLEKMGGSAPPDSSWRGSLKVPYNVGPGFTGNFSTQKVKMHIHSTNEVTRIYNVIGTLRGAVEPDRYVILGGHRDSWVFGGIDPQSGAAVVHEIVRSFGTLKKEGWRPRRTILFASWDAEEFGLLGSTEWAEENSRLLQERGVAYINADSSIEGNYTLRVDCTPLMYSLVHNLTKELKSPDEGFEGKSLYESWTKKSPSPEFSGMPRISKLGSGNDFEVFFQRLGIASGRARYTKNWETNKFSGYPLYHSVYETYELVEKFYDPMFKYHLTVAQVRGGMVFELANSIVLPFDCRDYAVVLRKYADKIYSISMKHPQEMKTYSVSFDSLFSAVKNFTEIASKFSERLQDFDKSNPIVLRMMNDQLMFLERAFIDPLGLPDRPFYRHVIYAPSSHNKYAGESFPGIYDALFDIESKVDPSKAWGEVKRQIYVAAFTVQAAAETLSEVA

PSMA [6] = target: T2, PSMA; experiment: Competitive binding (IC50) on LNCaP cells vs ([125I]I-BA)KuE; details: ratio of IC50 values
Protocol: (§1) Competitive binding studies were determined on LNCaP cells (1.5 × 10^5 cells in 1 mL/well) after incubation at 4 °C for 1 h, using (((S)-1-carboxy-5-(4-([^125I]iodo)benzamido)pentyl)carbamoyl)-L-glutamic acid (([^125I]I-BA)KuE; 0.2 nM/well) as reference radioligand (n = 5–9). Internalization studies of the radiolabeled ligands (0.5 nM/well) were performed on LNCaP cells (1.25 × 10^5 cells in 1 mL/well) at 37 °C for 1 h and accompanied by ([^125I]I-BA)KuE (0.2 nM/well), as reference. Data were corrected for non-specific binding and normalized to the specific internalization observed for the reference (n = 3–6). A detailed description of the experimental procedures was previously published.

[7] = system: LNCaP tumor-bearing male CB-17 SCID mice; experiment: Biodistribution 1 h p.i.; type: in vivo
Protocol: (§2) LNCaP tumor xenografts were established in 6–8 weeks old male CB-17 SCID mice as described previously.
(§3) 1–3 MBq (0.2 nmol) of the [^18F, ^natGa]rhPSMA inhibitors were injected into the tail vein of LNCaP tumor-bearing male CB-17 SCID mice that were sacrificed 1 h post injection (p.i.) (n = 4 for 7.1, n = 5 for 7.2, n = 4 for 7.3, n = 5 for 7.4 and n = 3 for 7). Selected organs were removed, weighed, and measured in a γ-counter. For competition studies, 8 mg/kg of 2-PMPA (2-(Phosphonomethyl)-pentandioic acid) were co-administered (n = 3).

LNCaP cells [8] = experiment: Internalization into LNCaP cells relative to ([125I]I-BA)KuE; type: cell-based; details: 1 h, 37 °C, percentage of reference ligand ([125I]I-BA)KuE, n = 3-6
Protocol: as §1

LNCaP tumor-bearing mice = experiment: Differential uptake and excretion pattern of isomers after injection of the diastereomeric mixture (radio-HPLC); type: in vivo; details: blood, liver, kidney and tumor, 30 min p.i., n = 4
Protocol: With the intention to identify even marginal differences in the in vivo behavior, all four [^18F, ^natGa]rhPSMA-7 isomers were co-evaluated in one single tumor-bearing mouse in order to quantify the differential uptake and excretion pattern of each isomer. For this purpose, the diastereomeric mixture [^18F, ^natGa]rhPSMA-7 was produced in high molar activity (AM) of 247–349 GBq/µmol (at end of synthesis) and the abundance of each isomer was determined by radio-HPLC. Mice (n = 4) were injected with [^18F, ^natGa]rhPSMA-7 (180–280 MBq, 0.9–1.0 nmol) and left under anesthesia. After 30 min p.i., they were sacrificed and urine, blood, liver, kidneys and tumor were collected and processed. Radioactivity was extracted from solid tissues by means of a Potter–Elvehjem tissue grinder (n = 1) or a ball mill (n = 3) and separated from the protein fraction by subsequent cartridge-based solid-phase extraction (SPE). Blood samples were diluted, centrifuged and the supernatant was purified by SPE (see supporting information). Urine and extracts from tissue samples were then analyzed by radio-HPLC to quantify the fraction of each isomer in each sample. Finally, the relative percentage difference between the abundance of each isomer in the injected diastereomeric mixture (values taken from the quality control) and the abundance of the respective isomer in each analyzed tissue or body fluid was calculated. […] PeakFit allows for automated nonlinear separation, analysis and quantification of HPLC elution profiles by deconvolution procedures that uses a Gaussian response function with a Fourier deconvolution/filtering algorithm (see Additional file 1: Fig. 7).
Extraction via the Potter-Elvehjem Tissue Grinder. Tumor and kidneys were separately homogenized in the tissue homogeniser with 1 mL of extraction buffer (850 μL 1 M HEPES pH 7.4, 100 μL 20 mM PMPA and 100 μL 1 M NaCl) for 30 min. The resulting homogenate was collected and centrifuged at 13000×g for 5 min. Subsequently, the supernatant was collected, centrifuged again (13000×g, 5 min) and loaded on a Strata X cartridge (33 μm Polymeric Reversed Phase 500 mg) preconditioned with 5 mL MeOH, followed by 5 mL H2O. After washing with 5 mL H2O, the cartridge was eluted with a 3:2 mixture (v/v) of MeCN in H2O supplemented with 1% TFA. For radio-HPLC analysis the eluates were diluted with water.
Extraction via the MM-400 Ball Mill. The samples (tumor, kidney, liver) were separately homogenized in a 2 mL tube together with 3 grinding balls (3 mm diameter) and 1 mL of extraction buffer (850 μL 1 M HEPES pH 7.4, 100 μL 20 mM PMPA and 100 μL 1 M NaCl) for 10 min at 30 Hz. The homogenate was centrifuged at 13 000×g for 5 min and the supernatant was collected. […]

human serum albumin [9] = target: T1, human serum albumin; experiment: Human serum albumin binding on Chiralpak HSA column; type: in vitro ADME
Protocol: Approximately 1 MBq of the ^18F-ligand was dissolved in 1 mL of a 1:1 mixture (v/v) of phosphate-buffered saline (PBS, pH 7.4) and n-octanol (n = 18–23). After vigorous mixing of the suspension for 3 min, the vial was centrifuged at 15,000 × g for 3 min and 100 μL aliquots of both layers were measured in a γ-counter. HSA binding of ^19F-^natGa-rhPSMA ligands was determined according to a previously published procedure.

[10] = system: LNCaP tumor-bearing male CB-17 SCID mice; experiment: Biodistribution 1 h p.i. with competition (co-injection of 2-PMPA); type: in vivo; details: co-injected with 2-PMPA (8 mg/kg), n = 3
Protocol: as §2, §3

SMILES: CC(C)(C)[Si](F)(c1ccc(C(=O)O)cc1)C(C)(C)C [SiFA-moiety, 4-(di-tert-butylfluorosilyl)benzoic acid]
- log P [1]: 3.6

SMILES: O=C(O)CC[C@H](NC(=O)N[C@@H](CCCCNC(=O)c1ccc(F)nc1)C(=O)O)C(=O)O [[^18/19F]DCFPyL]
- Internalization (internalized activity) (LNCaP cells [2]): 118 ± 4 % of reference
- HSA-binding (human serum albumin [3]): 14%
- Lipophilicity Log D ([4]; listed as [^18F]DCFPyL): -3.4 ± 0.03

SMILES: O=C(O)CC[C@H](NC(=O)N[C@@H](CCCCNC(=O)[C@H](Cc1ccc2ccccc2c1)NC(=O)c1ccc(CNC(=O)[C@H](CCC(=O)O)NC(=O)[C@H](CCC(=O)O)NC(=O)c2ccc(F)nc2)cc1)C(=O)O)C(=O)O [[^18/19F]PSMA-1007]
- IC50 (PSMA [5]): 4.2 ± 0.5 nM

SMILES: O=C(O)CC[C@H](NC(=O)N[C@@H](CCCCNC(=O)[C@H](Cc1ccc2ccccc2c1)NC(=O)c1ccc(CNC(=O)[C@H](CCC(=O)O)NC(=O)[C@H](CCC(=O)O)NC(=O)c2ccc([18F])nc2)cc1)C(=O)O)C(=O)O [[^18/19F]PSMA-1007]
- Internalization (internalized activity) (LNCaP cells [2]): 118 ± 5 % of reference
- HSA-binding (human serum albumin [3]): 98%
- HSA-binding (human serum albumin [3]; listed as [^19F]PSMA-1007): > 96%
- Lipophilicity Log D ([4]; listed as [^18F]PSMA-1007): -1.6 ± 0.02

SMILES: CC(C)(C)[Si]([18F])(c1ccc(C(=O)NC[C@@H](NC(=O)CC[C@H](C(=O)O)N2CCN(CC(=O)[O-])CCN(CC(=O)[O-])CCN(CC(=O)[O-])CC2)C(=O)N[C@H](CCCCNC(=O)CCC(=O)NCCC[C@@H](NC(=O)CC[C@H](NC(=O)N[C@@H](CCC(=O)O)C(=O)O)C(=O)O)C(=O)O)C(=O)O)cc1)C(C)(C)C.[Ga+3] [[^18F, ^natGa]rhPSMA-7.1]
- Affinity fold higher than that of [19F]DCFPyL (PSMA [6]): 1.8 fold
- Biodistribution Adrenals [7]: 2.0 ± 0.25 % ID/g
- Biodistribution Blood [7]: 0.53 ± 0.13 % ID/g
- Biodistribution Bone [7]: 0.50 ± 0.31 % ID/g
- Biodistribution Heart [7]: 0.53 ± 0.03 % ID/g
- Biodistribution Intestine [7]: 0.30 ± 0.16 % ID/g
- Biodistribution Kidneys [7]: 220 ± 24.8 % ID/g
- Biodistribution Liver [7]: 0.75 ± 0.62 % ID/g
- Biodistribution Lung [7]: 1.1 ± 0.21 % ID/g
- Biodistribution Muscle [7]: 0.32 ± 0.30 % ID/g
- Biodistribution Pancreas [7]: 0.45 ± 0.12 % ID/g
- Biodistribution Spleen [7]: 20.0 ± 4.2 % ID/g
- Biodistribution Stomach [7]: 0.28 ± 0.17 % ID/g
- Biodistribution Tumor [7]: 14.1 ± 4.1 % ID/g
- Internalization (internalized activity) (LNCaP cells [8]): 70 ± 5 % of reference
- Abundance (enrichment) of the isomer in tissue compared to time point of injection (LNCaP tumor-bearing mice): higher
- HSA-binding (human serum albumin [9]): 98%
- Biodistribution Adrenals [10]: 0.003 ± 0.004 % ID/g
- Biodistribution Blood [10]: 0.86 ± 0.40 % ID/g
- Biodistribution Bone [10]: 0.33 ± 0.24 % ID/g
- Biodistribution Heart [10]: 0.37 ± 0.16 % ID/g
- Biodistribution Intestine [10]: 0.66 ± 0.32 % ID/g
- Biodistribution Kidneys [10]: 10.9 ± 2.5 % ID/g
- Biodistribution Liver [10]: 0.43 ± 0.07 % ID/g
- Biodistribution Lung [10]: 0.85 ± 0.29 % ID/g
- Biodistribution Muscle [10]: 0.17 ± 0.15 % ID/g
- Biodistribution Pancreas [10]: 0.16 ± 0.10 % ID/g
- Biodistribution Spleen [10]: 0.21 ± 0.08 % ID/g
- Biodistribution Stomach [10]: 0.97 ± 0.81 % ID/g
- Biodistribution Tumor [10]: 0.94 ± 0.22 % ID/g

SMILES: CC(C)(C)[Si]([18F])(c1ccc(C(=O)NC[C@H](NC(=O)CC[C@@H](C(=O)O)N2CCN(CC(=O)[O-])CCN(CC(=O)[O-])CCN(CC(=O)[O-])CC2)C(=O)N[C@H](CCCCNC(=O)CCC(=O)NCCC[C@@H](NC(=O)CC[C@H](NC(=O)N[C@@H](CCC(=O)O)C(=O)O)C(=O)O)C(=O)O)C(=O)O)cc1)C(C)(C)C.[Ga+3] [[^18F, ^natGa]rhPSMA-7.4]
- Biodistribution Adrenals [7]: 3.57 ± 2.38 % ID/g
- Biodistribution Blood [7]: 1.15 ± 0.30 % ID/g
- Biodistribution Bone [7]: 0.62 ± 0.30 % ID/g
- Biodistribution Heart [7]: 0.71 ± 0.26 % ID/g
- Biodistribution Intestine [7]: 0.37 ± 0.09 % ID/g
- Biodistribution Kidneys [7]: 153 ± 80.3 % ID/g
- Biodistribution Liver [7]: 0.69 ± 0.20 % ID/g
- Biodistribution Lung [7]: 1.59 ± 0.61 % ID/g
- Biodistribution Muscle [7]: 0.31 ± 0.08 % ID/g
- Biodistribution Pancreas [7]: 0.50 ± 0.30 % ID/g
- Biodistribution Spleen [7]: 18.4 ± 9.77 % ID/g
- Biodistribution Stomach [7]: 0.25 ± 0.06 % ID/g
- Biodistribution Tumor [7]: 18.9 ± 3.27 % ID/g
- Internalization (internalized activity) (LNCaP cells [8]): 207 ± 4 % of reference
- Abundance (enrichment) of the isomer in tissue compared to time point of injection (LNCaP tumor-bearing mice): lowest enrichment in blood, liver and kidney, but also the lowest uptake by tumors
- HSA-binding (human serum albumin [9]): 97%
- Biodistribution Adrenals [10]: 0.03 ± 0.04 % ID/g
- Biodistribution Blood [10]: 0.82 ± 0.17 % ID/g
- Biodistribution Bone [10]: 1.0 ± 0.8 % ID/g
- Biodistribution Heart [10]: 0.37 ± 0.05 % ID/g
- Biodistribution Intestine [10]: 0.36 ± 0.08 % ID/g
- Biodistribution Kidneys [10]: 7.2 ± 2.4 % ID/g
- Biodistribution Liver [10]: 0.48 ± 0.14 % ID/g
- Biodistribution Lung [10]: 0.74 ± 0.14 % ID/g
- Biodistribution Muscle [10]: 0.20 ± 0.05 % ID/g
- Biodistribution Pancreas [10]: 0.18 ± 0.09 % ID/g
- Biodistribution Spleen [10]: 0.28 ± 0.15 % ID/g
- Biodistribution Stomach [10]: 0.20 ± 0.07 % ID/g
- Biodistribution Tumor [10]: 0.99 ± 0.19 % ID/g
